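1) Cells in 96-well plates. 2) Compound, 48 h, 5 concentrations. 3) Linear interpolation between surrounding doses. 4) Unreached endpoint = highest concentration. GI50 is the concentration that inhibits growth by half.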 The source made the active and inactive calls. No stated cut-off is given here; in the data, active = GI50 up to about 1.1 µM and inactive = higher.
Tests used:
Experiment in all cases: DTP human tumour cell line panel, 48 h
SR = tested on: SR
T47D = tested on: T47D
EKVX = tested on: EKVX
CAKI-1 = tested on: CAKI-1
CCRF-CEM = tested on: CCRF-CEM
UACC-257 = tested on: UACC-257
SN12C = tested on: SN12C
MCF7 = tested on: MCF7
A498 = tested on: A498
NCI-H522 = tested on: NCI-H522
NCI/ADR-RES = tested on: NCI/ADR-RES
SF-295 = tested on: SF-295
KM12 = tested on: KM12
786-0 = tested on: 786-0
COLO 205 = tested on: COLO 205
SNB-75 = tested on: SNB-75
MDA-MB-231 = tested on: MDA-MB-231
HCT-116 = tested on: HCT-116
UO-31 = tested on: UO-31
HCC 2998 = tested on: HCC 2998

Measured: GI50

CN(C)CCCc1c2ccccc2nc2ccc(Cl)cc12
inactive: SR 18.5 µM | T47D 36.5 µM | EKVX 17 µM | CAKI-1 15.2 µM | CCRF-CEM 9.16 µM | UACC-257 13.3 µM | SN12C 10.3 µM | MCF7 6.76 µM | A498 19.2 µM | NCI-H522 14.2 µM | NCI/ADR-RES 21.9 µM | SF-295 16.2 µM | KM12 17.9 µM | 786-0 11.7 µM | COLO 205 14.9 µM | SNB-75 15.5 µM | MDA-MB-231 16.6 µM | HCT-116 10.9 µM

O=C(Nc1ccc(-c2cn3ccccc3n2)cc1)c1cc(Br)ccc1O
inactive: SR > 100 µM | T47D > 100 µM | EKVX > 100 µM | CAKI-1 > 100 µM | CCRF-CEM > 100 µM | UACC-257 > 100 µM | SN12C > 100 µM | MCF7 > 100 µM | A498 > 100 µM | NCI-H522 > 100 µM | NCI/ADR-RES > 100 µM | SF-295 > 100 µM | KM12 > 100 µM | 786-0 > 100 µM | COLO 205 > 100 µM | SNB-75 > 100 µM | MDA-MB-231 > 100 µM | HCT-116 > 100 µM

O=C1C/C(=N/c2ccc(Cl)cc2)C(c2ccccc2)N1c1ccccc1 (configuration not stated)
inactive: SR 5.43 µM | T47D 1.38 µM | EKVX > 100 µM | CAKI-1 1.59 µM | UACC-257 17.4 µM | SN12C 23.9 µM | MCF7 10 µM | A498 19.3 µM | NCI-H522 1.64 µM | UO-31 5.41 µM | NCI/ADR-RES 7.06 µM | SF-295 8.61 µM | KM12 6.61 µM | 786-0 38.4 µM | COLO 205 3.66 µM | HCC 2998 > 100 µM | MDA-MB-231 7.21 µM | HCT-116 8.89 µM

Cn1ncc2[nH]cnc2c1=S
inactive: SR 26.7 µM | T47D > 100 µM | EKVX > 100 µM | CAKI-1 > 100 µM | CCRF-CEM 19.8 µM | UACC-257 > 100 µM | SN12C > 100 µM | MCF7 79.3 µM | A498 > 100 µM | UO-31 > 100 µM | NCI/ADR-RES > 100 µM | SF-295 > 100 µM | KM12 > 100 µM | 786-0 > 100 µM | COLO 205 47.5 µM | SNB-75 86.1 µM | MDA-MB-231 > 100 µM | HCT-116 > 100 µM

— ChEMBL document CHEMBL1201862, “PubChem BioAssay data set” (2004)
